Data as given in ChEMBL document CHEMBL1151722, “Sesquiterpenoids and phenylpropanoids from Chloranthus serratus” (2008).

system: Helicobacter pylori; test: Antimicrobial activity against Helicobacter pylori-SS1; assay type: functional

MIC, 25 µg/mL:
C=C1CCC[C@]2(C)CC[C@@](O)(C(C)C)C(=O)[C@@H]12 [CHLORANTENE G]
C=C1CC/C=C(\C)C(=O)c2occ(C)c2C(=O)C1 [CHLORANTENE E]
C=C[C@]1(C)C(=O)c2occ(C)c2C(=O)[C@H]1C(=C)C [CHLORANTENE F]
CC1=C2C(=O)c3c(C)coc3C[C@@]2(C)[C@H](O)CC1=O [CHLORANTENE D]
